# Experimental data from patent US20150045284A1 (priority 2011, published 2015).
# Experiments:
# [1] = target: LpCopA (Legionella pneumophila Cu^+ transporting P-type ATPase) (Legionella pneumophila subsp. pneumophila, UniProt Q5ZWR1); conditions: for Measured LpCopA activity in the presence of different ions (relative ATPase activity): 100 μM CuCl2 or AgNo3, 1 mg/mL E. coli total lipid extract, 20 mM cysteine, TTM background subtracted
# HMBD-truncated LpCopA = HMBD-truncated LpCopA (Legionella pneumophila subsp. pneumophila, UniProt Q5ZWR1)
# Sequence of HMBD-truncated LpCopA (Q5ZWR1 75-736 limits assumed): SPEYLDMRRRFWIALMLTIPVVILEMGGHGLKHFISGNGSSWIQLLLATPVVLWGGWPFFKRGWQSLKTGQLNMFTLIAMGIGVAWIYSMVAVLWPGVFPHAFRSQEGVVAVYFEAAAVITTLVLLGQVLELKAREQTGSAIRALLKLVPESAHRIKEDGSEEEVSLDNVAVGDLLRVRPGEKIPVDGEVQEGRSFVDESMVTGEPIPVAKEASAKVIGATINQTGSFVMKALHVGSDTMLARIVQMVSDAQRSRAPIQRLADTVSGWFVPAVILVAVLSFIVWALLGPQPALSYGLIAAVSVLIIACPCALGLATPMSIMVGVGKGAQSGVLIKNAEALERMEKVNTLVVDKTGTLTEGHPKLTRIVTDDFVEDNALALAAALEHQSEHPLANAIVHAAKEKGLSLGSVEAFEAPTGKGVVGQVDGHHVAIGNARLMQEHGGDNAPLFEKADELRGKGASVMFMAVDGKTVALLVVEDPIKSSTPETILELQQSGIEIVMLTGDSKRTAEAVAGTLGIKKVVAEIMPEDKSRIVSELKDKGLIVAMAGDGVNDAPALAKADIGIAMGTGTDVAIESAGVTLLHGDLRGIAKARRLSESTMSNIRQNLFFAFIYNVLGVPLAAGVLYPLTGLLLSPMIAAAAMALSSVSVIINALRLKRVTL
# Sequence of LpCopA (Legionella pneumophila Cu^+ transporting P-type ATPase) (Q5ZWR1 whole entry, looked up, the tested form may be a part): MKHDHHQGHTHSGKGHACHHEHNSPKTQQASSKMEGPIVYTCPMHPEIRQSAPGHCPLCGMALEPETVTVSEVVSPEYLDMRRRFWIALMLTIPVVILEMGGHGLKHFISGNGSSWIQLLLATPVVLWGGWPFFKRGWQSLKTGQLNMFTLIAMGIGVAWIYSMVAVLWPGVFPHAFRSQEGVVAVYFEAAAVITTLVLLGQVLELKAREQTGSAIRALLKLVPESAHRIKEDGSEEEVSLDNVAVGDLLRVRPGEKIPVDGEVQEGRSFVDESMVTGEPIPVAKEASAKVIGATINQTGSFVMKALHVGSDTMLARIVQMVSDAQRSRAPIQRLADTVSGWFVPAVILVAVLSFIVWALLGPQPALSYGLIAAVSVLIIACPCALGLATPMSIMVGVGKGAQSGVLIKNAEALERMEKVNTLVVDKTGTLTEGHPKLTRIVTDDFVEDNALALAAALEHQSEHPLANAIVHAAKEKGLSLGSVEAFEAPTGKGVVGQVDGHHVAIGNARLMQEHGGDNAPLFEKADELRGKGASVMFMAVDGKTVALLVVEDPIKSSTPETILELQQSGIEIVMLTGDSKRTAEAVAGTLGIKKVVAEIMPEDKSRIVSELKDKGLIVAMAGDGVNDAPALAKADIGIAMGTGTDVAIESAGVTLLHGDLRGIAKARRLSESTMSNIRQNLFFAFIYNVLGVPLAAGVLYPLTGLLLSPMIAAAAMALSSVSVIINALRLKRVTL
SMILES,Measured LpCopA activity in the presence of different ions (relative ATPase activity) [1],CuCl2 concentration of optimum ATPase activity (HMBD-truncated LpCopA),"CuCl2 concentration of highest ATPase activity ([1]; full-length LpCopA, 10 nM to 10 mM CuCl2 incl. 10 μM TTM, appears inhibited above)"
[Ag+] [Ag^+],clearly stimulate ATPase activity,–,–
[Cl][Cu][Cl] [CuCl2],–,about 1 mM,1 mM
[Cu+] [Cu^+],clearly stimulate ATPase activity,–,–
